Columns and labels:
[1] = test system: Sagittaria pygmaea, L.; experiment: Preemergence weed control under flooded paddy conditions, SAGPY (Arrowhead (Pygmaea)); assay type: in vivo; settings: flooded paddy; for SAGPY: preemergence weeds, herbicidal effect rating 0-9, three to four weeks after treatment; for SAGPY herbicidal rating: preemergence, rated three to four weeks after treatment
[2] = test system: Monochoria vaginalis, Presl.; experiment: Preemergence weed control under flooded paddy conditions, MOOVA (Monochoria); assay type: in vivo; settings: flooded paddy; for MOOVA: preemergence weeds, herbicidal effect rating 0-9, three to four weeks after treatment; for MOOVA herbicidal rating: preemergence, rated three to four weeks after treatment
[3] = test system: Echinochloa oryzoides (Ard.) Fritsch.; experiment: Preemergence weed control under flooded paddy conditions, ECHORC (Watergrass (Calif.)); assay type: in vivo; settings: flooded paddy; for ECHORC: preemergence weeds, herbicidal effect rating 0-9, three to four weeks after treatment; for ECHORC herbicidal rating: preemergence, rated three to four weeks after treatment
[4] = test system: Oryza sativa, (L.) Tebonnet; experiment: Rice tolerance to post-transplant applications under flooded paddy conditions (Example 187), ORYSAT (Rice, Tebonnet); settings: for ORYSAT: herbicidal effect rating 0-9, three to four weeks after treatment; for ORYSAT herbicidal rating (rice tolerance): rated three to four weeks after treatment
[5] = test system: Cyperus serotinus, Rottb.; experiment: Preemergence weed control under flooded paddy conditions, CYPSE (Flatsedge); assay type: in vivo; settings: for CYPSE: preemergence weeds, herbicidal effect rating 0-9, three to four weeks after treatment; for CYPSE herbicidal rating: preemergence, rated three to four weeks after treatment
[6] = test system: Cyperus iria; experiment: Preemergence weed control under flooded paddy conditions, CYPIR (Rice Flatsedge); assay type: in vivo; settings: flooded paddy; for CYPIR: preemergence weeds, herbicidal effect rating 0-9, three to four weeks after treatment; for CYPIR herbicidal rating: preemergence, rated three to four weeks after treatment

Cn1c(C(F)(F)F)cc(=O)n(-c2ccc3snc(COC4CCCCO4)c3c2)c1=O (stereo not shown) [Example 456, 2,4(1H,3H)-Pyrimidinedione, 1-methyl-3-{3-{[(tetrahydro-2H-pyran-2-yl)oxy]methyl}-1,2-benzisothiazol-5-yl}-6-(trifluoromethyl)-]
SAGPY ([1]; 0.0320 kg/ha): 0.0
SAGPY ([1]; 0.0620 kg/ha): 0.0
SAGPY ([1]; 0.1250 kg/ha): 2.0
SAGPY ([1]; 0.2500 kg/ha): 4.0
MOOVA ([2]; 0.0320 kg/ha): 7.0
MOOVA ([2]; 0.0620 kg/ha): 9.0
MOOVA ([2]; 0.1250 kg/ha): 9.0
MOOVA ([2]; 0.2500 kg/ha): 9.0
ECHORC ([3]; 0.0320 kg/ha): 4.0
ECHORC ([3]; 0.0620 kg/ha): 6.0
ECHORC ([3]; 0.1250 kg/ha): 7.0
ECHORC ([3]; 0.2500 kg/ha): 9.0
ORYSAT ([4]; 0.0320 kg/ha): 7.0
ORYSAT ([4]; 0.0620 kg/ha): 8.0
ORYSAT ([4]; 0.1250 kg/ha): 8.0
ORYSAT ([4]; 0.2500 kg/ha): 9.0
CYPSE ([5]; 0.0320 kg/ha): 0.0
CYPSE ([5]; 0.0620 kg/ha): 0.0
CYPSE ([5]; 0.1250 kg/ha): 2.0
CYPSE ([5]; 0.2500 kg/ha): 4.0
CYPIR ([6]; 0.0320 kg/ha): 0.0
CYPIR ([6]; 0.0620 kg/ha): 4.0
CYPIR ([6]; 0.1250 kg/ha): 6.0
CYPIR ([6]; 0.2500 kg/ha): 6.0

Cc1ccsc1C=C(C#N)c1nsc2ccc(-n3c(=O)cc(C(F)(F)F)n(C)c3=O)cc12 [Example 457, 1,2-Benzisothiazole-3-acetonitrile, 5-[3,6-dihydro-3-methyl-2,6-dioxo-4-(trifluoromethyl)-1(2H)-pyrimidinyl]-alpha-(3-methyl-2-thenylidene)-]
SAGPY ([1]; 0.0320 kg/ha): 0.0
SAGPY ([1]; 0.0620 kg/ha): 0.0
SAGPY ([1]; 0.1250 kg/ha): 3.0
SAGPY ([1]; 0.2500 kg/ha): 3.0
MOOVA ([2]; 0.0320 kg/ha): 2.0
MOOVA ([2]; 0.0620 kg/ha): 4.0
MOOVA ([2]; 0.1250 kg/ha): 7.0
MOOVA ([2]; 0.2500 kg/ha): 7.0
ECHORC ([3]; 0.0320 kg/ha): 5.0
ECHORC ([3]; 0.0620 kg/ha): 7.0
ECHORC ([3]; 0.1250 kg/ha): 9.0
ECHORC ([3]; 0.2500 kg/ha): 9.0
ORYSAT ([4]; 0.0320 kg/ha): 0.0
ORYSAT ([4]; 0.0620 kg/ha): 0.0
ORYSAT ([4]; 0.1250 kg/ha): 0.0
ORYSAT ([4]; 0.2500 kg/ha): 3.0
CYPSE ([5]; 0.0320 kg/ha): 0.0
CYPSE ([5]; 0.0620 kg/ha): 0.0
CYPSE ([5]; 0.1250 kg/ha): 0.0
CYPSE ([5]; 0.2500 kg/ha): 0.0
CYPIR ([6]; 0.0320 kg/ha): 0.0
CYPIR ([6]; 0.0620 kg/ha): 3.0
CYPIR ([6]; 0.1250 kg/ha): 5.0
CYPIR ([6]; 0.2500 kg/ha): 7.0

COC(=O)COc1ccc(I)cc1-c1nsc2ccc(-n3c(=O)cc(C(F)(F)F)n(C)c3=O)cc12 [Example 459, Acetic acid, {2-{5-[3,6-dihydro-3-methyl-2,6-dioxo-4-(trifluoromethyl)-1(2H)-pyrimidinyl]-1,2-benzisothiazol-3-yl}-4-iodophenoxy}-, methyl ester]
SAGPY herbicidal rating ([1]; 0.0320 kg/ha): 0.0
SAGPY ([1]; 0.0620 kg/ha): 0.0
SAGPY ([1]; 0.1250 kg/ha): 0.0
SAGPY ([1]; 0.2500 kg/ha): 0.0
MOOVA herbicidal rating ([2]; 0.0320 kg/ha): 3.0
MOOVA ([2]; 0.0620 kg/ha): 5.0
MOOVA ([2]; 0.1250 kg/ha): 7.0
MOOVA ([2]; 0.2500 kg/ha): 7.0
ECHORC herbicidal rating ([3]; 0.0320 kg/ha): 7.0
ECHORC ([3]; 0.0620 kg/ha): 7.0
ECHORC ([3]; 0.1250 kg/ha): 9.0
ECHORC ([3]; 0.2500 kg/ha): 9.0
ORYSAT herbicidal rating (rice tolerance) ([4]; 0.0320 kg/ha): 2.0
ORYSAT ([4]; 0.0620 kg/ha): 4.0
ORYSAT ([4]; 0.1250 kg/ha): 5.0
ORYSAT ([4]; 0.2500 kg/ha): 5.0
CYPSE herbicidal rating ([5]; 0.0320 kg/ha): 0.0
CYPSE ([5]; 0.0620 kg/ha): 0.0
CYPSE ([5]; 0.1250 kg/ha): 0.0
CYPSE ([5]; 0.2500 kg/ha): 3.0
CYPIR herbicidal rating ([6]; 0.0320 kg/ha): 0.0
CYPIR ([6]; 0.0620 kg/ha): 2.0
CYPIR ([6]; 0.1250 kg/ha): 4.0
CYPIR ([6]; 0.2500 kg/ha): 4.0

COC(=O)C(C)Oc1ccc(I)cc1-c1nsc2ccc(-n3c(=O)cc(C(F)(F)F)n(C)c3=O)cc12 (stereo not shown) [Example 460, Propionic acid, 2-{2-{5-[3,6-dihydro-3-methyl-2,6-dioxo-4-(trifluoromethyl)-1(2H)-pyrimidinyl]-1,2-benzisothiazol-3-yl}-4-iodophenoxy}-, methyl ester]
SAGPY herbicidal rating ([1]; 0.0320 kg/ha): 0.0
SAGPY herbicidal rating ([1]; 0.0620 kg/ha): 0.0
SAGPY herbicidal rating ([1]; 0.1250 kg/ha): 3.0
SAGPY herbicidal rating ([1]; 0.2500 kg/ha): 3.0
MOOVA herbicidal rating ([2]; 0.0320 kg/ha): 3.0
MOOVA herbicidal rating ([2]; 0.0620 kg/ha): 4.0
MOOVA herbicidal rating ([2]; 0.1250 kg/ha): 4.0
MOOVA herbicidal rating ([2]; 0.2500 kg/ha): 4.0
ECHORC herbicidal rating ([3]; 0.0320 kg/ha): 6.0
ECHORC herbicidal rating ([3]; 0.0620 kg/ha): 7.0
ECHORC herbicidal rating ([3]; 0.1250 kg/ha): 9.0
ECHORC herbicidal rating ([3]; 0.2500 kg/ha): 9.0
ORYSAT herbicidal rating (rice tolerance) ([4]; 0.0320 kg/ha): 4.0
ORYSAT herbicidal rating (rice tolerance) ([4]; 0.0620 kg/ha): 4.0
ORYSAT herbicidal rating (rice tolerance) ([4]; 0.1250 kg/ha): 4.0
ORYSAT herbicidal rating (rice tolerance) ([4]; 0.2500 kg/ha): 5.0
CYPSE herbicidal rating ([5]; 0.1250 kg/ha): 0.0
CYPSE herbicidal rating ([5]; 0.2500 kg/ha): 0.0
CYPIR herbicidal rating ([6]; 0.0320 kg/ha): 0.0
CYPIR herbicidal rating ([6]; 0.0620 kg/ha): 2.0
CYPIR herbicidal rating ([6]; 0.1250 kg/ha): 3.0
CYPIR herbicidal rating ([6]; 0.2500 kg/ha): 3.0
